Our source for the IC50 values is patent US11331299B2, “Medicinal use of serrulatane diterpenes” (The University of Sydney, priority 2016, dated 2022).

pIC50: −log10 of the molar value. Where two headings read alike, the source gives them in different places.

The target in experiment [1] is T1, Sirtuin 6 (h) (Homo sapiens, UniProt Q8N6T7). Particulars: reference compound; Fluorogenic HDAC 50 μM; 180 min/RT; cited from earlier work.
The target of experiment [2] is T1, Sirtuin 6 (h). In words: Epigenetic enzyme assay, Sirtuins. The experiment is classed as biochemical. As to conditions: Table 10; read-out: Reference IC50.
The target in experiment [3] is T2, GCN5L2(h) (Homo sapiens, UniProt Q92830). The experiment in a line: Epigenetic enzyme assay, Histone acetyltransferases (HATs). The experiment is classed as biochemical. As to conditions: Table 10; read-out: Reference IC50.
T2 sequence (Q92830 whole entry): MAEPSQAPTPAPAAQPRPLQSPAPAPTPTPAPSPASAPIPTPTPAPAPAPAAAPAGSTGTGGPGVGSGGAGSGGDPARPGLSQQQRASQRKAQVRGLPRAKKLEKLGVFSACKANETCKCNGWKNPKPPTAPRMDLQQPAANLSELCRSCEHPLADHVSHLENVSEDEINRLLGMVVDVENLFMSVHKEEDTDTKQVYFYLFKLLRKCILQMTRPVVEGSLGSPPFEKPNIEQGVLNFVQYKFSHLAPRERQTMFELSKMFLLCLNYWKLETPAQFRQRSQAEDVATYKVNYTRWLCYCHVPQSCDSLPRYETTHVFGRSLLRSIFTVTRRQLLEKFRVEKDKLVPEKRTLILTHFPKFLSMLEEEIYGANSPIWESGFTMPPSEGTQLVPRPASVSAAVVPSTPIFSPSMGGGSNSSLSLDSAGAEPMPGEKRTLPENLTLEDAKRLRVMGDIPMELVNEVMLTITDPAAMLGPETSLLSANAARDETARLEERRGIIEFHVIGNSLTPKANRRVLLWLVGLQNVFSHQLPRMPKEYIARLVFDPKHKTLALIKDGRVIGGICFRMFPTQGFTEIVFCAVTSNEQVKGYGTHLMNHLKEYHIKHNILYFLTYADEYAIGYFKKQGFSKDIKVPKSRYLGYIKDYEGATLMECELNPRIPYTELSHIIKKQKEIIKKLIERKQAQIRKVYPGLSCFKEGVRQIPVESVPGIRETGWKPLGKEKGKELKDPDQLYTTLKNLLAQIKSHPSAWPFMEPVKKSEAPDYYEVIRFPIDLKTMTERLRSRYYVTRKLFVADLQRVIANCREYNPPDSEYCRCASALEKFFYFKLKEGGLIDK
Experiment [4] addresses T2, GCN5L2(h). Particulars: reference compound; biotin-H3K27me3 50 nM; 10 min/RT; LANCE; cited from earlier work. A general note: In TR-FRET formats the signal depends on donor and acceptor labels being close together.
Experiment [5] has as its target T3, JMJD2B (h) (Homo sapiens, UniProt O94953).
T3 sequence (O94953 1-1096): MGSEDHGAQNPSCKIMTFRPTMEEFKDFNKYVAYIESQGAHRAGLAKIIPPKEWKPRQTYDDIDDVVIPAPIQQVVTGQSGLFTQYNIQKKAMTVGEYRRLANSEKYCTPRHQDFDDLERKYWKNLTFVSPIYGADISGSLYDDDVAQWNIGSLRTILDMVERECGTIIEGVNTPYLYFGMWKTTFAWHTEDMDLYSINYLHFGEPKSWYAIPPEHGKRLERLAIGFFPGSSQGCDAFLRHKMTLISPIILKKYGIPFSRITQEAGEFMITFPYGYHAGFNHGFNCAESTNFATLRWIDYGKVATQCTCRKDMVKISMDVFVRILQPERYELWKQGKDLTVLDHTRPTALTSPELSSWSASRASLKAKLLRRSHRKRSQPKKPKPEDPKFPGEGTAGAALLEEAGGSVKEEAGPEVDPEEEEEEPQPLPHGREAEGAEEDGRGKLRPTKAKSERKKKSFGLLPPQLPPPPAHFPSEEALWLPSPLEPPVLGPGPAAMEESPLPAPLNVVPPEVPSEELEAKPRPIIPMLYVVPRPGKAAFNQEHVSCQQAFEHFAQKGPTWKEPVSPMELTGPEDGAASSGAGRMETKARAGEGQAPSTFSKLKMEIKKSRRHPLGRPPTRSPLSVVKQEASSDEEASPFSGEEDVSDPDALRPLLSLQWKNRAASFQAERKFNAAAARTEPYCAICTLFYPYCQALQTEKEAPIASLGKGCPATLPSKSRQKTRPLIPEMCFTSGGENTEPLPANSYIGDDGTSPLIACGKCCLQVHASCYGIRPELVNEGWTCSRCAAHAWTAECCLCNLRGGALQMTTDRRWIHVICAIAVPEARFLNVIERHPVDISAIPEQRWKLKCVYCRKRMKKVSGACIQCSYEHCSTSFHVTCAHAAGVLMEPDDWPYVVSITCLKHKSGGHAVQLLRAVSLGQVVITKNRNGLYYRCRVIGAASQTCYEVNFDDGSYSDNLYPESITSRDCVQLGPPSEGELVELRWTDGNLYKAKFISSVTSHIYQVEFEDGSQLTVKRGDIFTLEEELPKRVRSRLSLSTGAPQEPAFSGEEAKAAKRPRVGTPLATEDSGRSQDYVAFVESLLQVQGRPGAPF
As to conditions: read-out: Reference IC50; cited from earlier work.

Experiment [6] addresses T4, FBXL10 (h) (Homo sapiens, UniProt Q8NHM5).
T4 sequence (Q8NHM5 1-1336): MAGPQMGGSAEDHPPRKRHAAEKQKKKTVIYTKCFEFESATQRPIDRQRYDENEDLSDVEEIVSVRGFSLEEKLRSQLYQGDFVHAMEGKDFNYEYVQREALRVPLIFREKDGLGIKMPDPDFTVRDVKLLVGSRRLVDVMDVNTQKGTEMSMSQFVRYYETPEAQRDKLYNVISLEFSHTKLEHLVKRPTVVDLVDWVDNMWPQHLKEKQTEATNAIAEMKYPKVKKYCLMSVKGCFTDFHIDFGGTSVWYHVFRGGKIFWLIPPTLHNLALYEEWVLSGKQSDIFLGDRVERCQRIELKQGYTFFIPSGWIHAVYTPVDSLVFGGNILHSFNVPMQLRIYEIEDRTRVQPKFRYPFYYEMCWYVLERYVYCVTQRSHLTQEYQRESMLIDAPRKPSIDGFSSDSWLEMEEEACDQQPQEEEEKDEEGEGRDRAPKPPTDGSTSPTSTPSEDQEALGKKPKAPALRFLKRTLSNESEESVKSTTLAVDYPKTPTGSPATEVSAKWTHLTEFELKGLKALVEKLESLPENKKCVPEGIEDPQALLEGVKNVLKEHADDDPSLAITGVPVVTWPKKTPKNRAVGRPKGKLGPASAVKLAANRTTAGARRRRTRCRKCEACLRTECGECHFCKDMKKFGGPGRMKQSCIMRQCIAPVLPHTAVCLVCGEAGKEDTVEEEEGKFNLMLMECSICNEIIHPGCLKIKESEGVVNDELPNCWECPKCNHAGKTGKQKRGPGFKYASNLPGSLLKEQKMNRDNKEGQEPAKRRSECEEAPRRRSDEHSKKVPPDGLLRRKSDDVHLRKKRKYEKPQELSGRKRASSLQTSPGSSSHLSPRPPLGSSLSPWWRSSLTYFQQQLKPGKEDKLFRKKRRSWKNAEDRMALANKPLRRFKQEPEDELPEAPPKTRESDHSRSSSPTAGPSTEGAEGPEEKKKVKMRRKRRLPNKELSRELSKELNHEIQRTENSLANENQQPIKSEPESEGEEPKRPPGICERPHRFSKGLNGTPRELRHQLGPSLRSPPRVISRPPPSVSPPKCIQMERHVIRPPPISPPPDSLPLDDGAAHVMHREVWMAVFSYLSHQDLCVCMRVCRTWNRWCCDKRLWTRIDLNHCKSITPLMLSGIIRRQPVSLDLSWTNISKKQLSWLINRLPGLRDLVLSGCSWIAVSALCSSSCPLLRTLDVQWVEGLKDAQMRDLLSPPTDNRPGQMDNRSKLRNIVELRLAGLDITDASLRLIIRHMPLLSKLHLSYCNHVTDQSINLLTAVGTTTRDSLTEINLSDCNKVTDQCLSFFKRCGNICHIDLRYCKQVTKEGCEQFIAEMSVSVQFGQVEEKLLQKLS
As to conditions: read-out: Reference IC50; cited from earlier work.

The target of experiment [7] is T5, JARID1A (h) (Homo sapiens, UniProt P29375). Particulars: read-out: Reference IC50; cited from earlier work.
T5 sequence (P29375 whole entry): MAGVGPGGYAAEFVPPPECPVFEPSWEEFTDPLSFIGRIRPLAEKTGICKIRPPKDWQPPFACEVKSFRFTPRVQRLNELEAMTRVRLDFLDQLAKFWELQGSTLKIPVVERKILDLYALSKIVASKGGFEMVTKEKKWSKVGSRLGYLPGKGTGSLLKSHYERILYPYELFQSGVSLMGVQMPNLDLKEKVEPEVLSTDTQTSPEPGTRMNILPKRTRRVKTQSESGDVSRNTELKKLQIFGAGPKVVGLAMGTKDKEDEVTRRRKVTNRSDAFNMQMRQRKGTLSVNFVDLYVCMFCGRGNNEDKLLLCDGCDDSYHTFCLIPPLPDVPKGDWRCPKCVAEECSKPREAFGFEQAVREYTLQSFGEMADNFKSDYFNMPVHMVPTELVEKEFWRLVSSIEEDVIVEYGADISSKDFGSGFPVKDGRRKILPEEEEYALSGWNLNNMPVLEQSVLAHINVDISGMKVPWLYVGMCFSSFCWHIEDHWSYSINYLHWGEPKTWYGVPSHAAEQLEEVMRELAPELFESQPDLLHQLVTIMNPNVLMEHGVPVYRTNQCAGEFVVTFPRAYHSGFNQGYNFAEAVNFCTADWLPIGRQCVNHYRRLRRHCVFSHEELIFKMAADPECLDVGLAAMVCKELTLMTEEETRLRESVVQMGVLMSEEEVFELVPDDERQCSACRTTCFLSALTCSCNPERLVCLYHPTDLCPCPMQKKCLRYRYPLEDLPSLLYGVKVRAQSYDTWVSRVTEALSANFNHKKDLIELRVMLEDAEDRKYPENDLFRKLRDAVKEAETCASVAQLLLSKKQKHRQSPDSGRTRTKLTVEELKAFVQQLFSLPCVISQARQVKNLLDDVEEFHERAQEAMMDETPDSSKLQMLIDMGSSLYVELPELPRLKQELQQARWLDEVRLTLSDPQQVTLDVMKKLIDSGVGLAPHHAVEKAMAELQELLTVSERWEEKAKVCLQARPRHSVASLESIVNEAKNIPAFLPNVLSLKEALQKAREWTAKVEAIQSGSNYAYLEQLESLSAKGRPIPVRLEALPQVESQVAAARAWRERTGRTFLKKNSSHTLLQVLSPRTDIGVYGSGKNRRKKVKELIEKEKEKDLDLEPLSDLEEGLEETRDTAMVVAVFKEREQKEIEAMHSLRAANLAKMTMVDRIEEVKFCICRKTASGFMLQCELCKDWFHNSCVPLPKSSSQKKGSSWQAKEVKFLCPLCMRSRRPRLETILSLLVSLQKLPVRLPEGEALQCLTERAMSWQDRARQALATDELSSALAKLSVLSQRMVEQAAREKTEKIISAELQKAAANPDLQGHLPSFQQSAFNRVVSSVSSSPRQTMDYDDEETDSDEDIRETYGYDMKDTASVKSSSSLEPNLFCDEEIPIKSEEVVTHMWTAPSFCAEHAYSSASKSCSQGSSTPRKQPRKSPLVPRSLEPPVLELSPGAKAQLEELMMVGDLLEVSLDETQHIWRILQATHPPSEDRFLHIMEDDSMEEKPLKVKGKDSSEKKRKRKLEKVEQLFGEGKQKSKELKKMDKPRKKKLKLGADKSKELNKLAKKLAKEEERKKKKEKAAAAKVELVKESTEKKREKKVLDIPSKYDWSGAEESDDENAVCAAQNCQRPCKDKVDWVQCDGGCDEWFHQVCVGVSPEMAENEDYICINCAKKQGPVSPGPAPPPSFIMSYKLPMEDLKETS
Experiment [8] addresses T3, JMJD2B (h). The experiment in a line: Epigenetic enzyme assay, Demethylases (KDMs). The format is biochemical.
Experiment [9] addresses T4, FBXL10 (h). The experiment in a line: Epigenetic enzyme assay, Demethylases (KDMs). The experiment is classed as biochemical. Particulars: read-out: Reference IC50.
Experiment [10] deals with T5, JARID1A (h). The experiment in a line: Epigenetic enzyme assay, Demethylases (KDMs). The experiment is classed as biochemical.
Experiment [11] concerns the target T6, Sirtuin 7 (h) (Homo sapiens, UniProt Q9NRC8).
T6 sequence (Q9NRC8 1-400): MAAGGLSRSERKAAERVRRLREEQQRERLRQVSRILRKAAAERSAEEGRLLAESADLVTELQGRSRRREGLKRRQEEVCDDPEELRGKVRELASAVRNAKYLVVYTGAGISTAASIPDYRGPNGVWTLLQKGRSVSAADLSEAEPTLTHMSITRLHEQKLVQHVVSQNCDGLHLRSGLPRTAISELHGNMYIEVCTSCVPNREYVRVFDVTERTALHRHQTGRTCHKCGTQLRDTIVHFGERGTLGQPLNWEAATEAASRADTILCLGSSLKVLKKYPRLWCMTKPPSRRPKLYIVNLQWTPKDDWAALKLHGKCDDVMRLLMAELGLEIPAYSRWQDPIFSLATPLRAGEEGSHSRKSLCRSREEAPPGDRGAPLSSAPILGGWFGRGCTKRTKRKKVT
As to conditions: reference compound; fluorogenic HDAC 25 μM; 60 min/37° C.; cited from earlier work.

Experiment [12] deals with T6, Sirtuin 7 (h). The experiment in a line: Epigenetic enzyme assay, Sirtuins. The format is biochemical. Particulars: Table 10; read-out: Reference IC50.
Experiment [13] concerns the target T7, PCAF (h) bromodomain (Homo sapiens, UniProt Q92831).
T7 construct: Bromodomain
T7 sequence (Q92831 723-827 limits assumed): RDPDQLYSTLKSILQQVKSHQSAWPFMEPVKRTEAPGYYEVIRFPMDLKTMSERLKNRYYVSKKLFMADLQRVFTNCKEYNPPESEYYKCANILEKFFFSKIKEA
As to conditions: ligand biotin-H4 tetra acetyl Lys 5/8/12/16 100 nM; 30 min/RT; AlphaScreen; read-out: Reference IC50; cited from earlier work. In general terms: Bead proximity is the source of the signal in Alpha formats.

The target in experiment [14] is T8, ASH1L (h) bromodomain (Homo sapiens, UniProt Q9NR48).
T8 construct: ASH1L (h) bromodomain
The experiment in a line: Epigenetic binding assay, Bromodomain.

The target in experiment [15] is T9, ATAD2A (h) bromodomain (Homo sapiens, UniProt Q6PL18).
T9 construct: Bromodomain
T9 sequence (Q6PL18 980-1092 limits assumed): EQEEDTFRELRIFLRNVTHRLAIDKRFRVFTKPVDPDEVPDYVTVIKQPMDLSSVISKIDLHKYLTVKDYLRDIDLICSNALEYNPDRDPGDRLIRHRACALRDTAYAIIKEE
In words: Epigenetic binding assay, Bromodomain. As to conditions: Table 4; read-out: Reference IC50.

The target of experiment [16] is T10, KAT2A (GCN5L2) (h) bromodomain (Homo sapiens, UniProt Q92830).
T10 construct: Bromodomain
T10 sequence (Q92830 728-832 limits assumed): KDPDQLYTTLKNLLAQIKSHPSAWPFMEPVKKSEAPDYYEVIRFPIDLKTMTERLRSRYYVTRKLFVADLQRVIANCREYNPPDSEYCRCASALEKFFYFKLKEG
As to conditions: ligand biotin-H4 tetra acetyl Lys 5/8/12/16 30 nM; 15 min/RT; AlphaScreen; read-out: Reference IC50; cited from earlier work.

In experiment [17] the target is T8, ASH1L (h) bromodomain. As to conditions: ligand biotin-H4 di acetyl Lys 5/8 75 nM; 30 min/RT; AlphaScreen; read-out: Reference IC50; cited from earlier work.
Experiment [18] concerns the target T10, KAT2A (GCN5L2) (h) bromodomain. The experiment in a line: Epigenetic binding assay, Bromodomain. As to conditions: Table 4; read-out: Reference IC50.
For experiment [19], the target named is T7, PCAF (h) bromodomain. In words: Epigenetic binding assay, Bromodomain. Particulars: Table 4; read-out: Reference IC50.
Experiment [20] addresses T9, ATAD2A (h) bromodomain. As to conditions: ligand biotin-H4 tetra acetyl Lys 5/8/12/16 100 nM; 30 min/RT; AlphaScreen; read-out: Reference IC50; cited from earlier work.

T1 sequence (Q8N6T7 whole entry): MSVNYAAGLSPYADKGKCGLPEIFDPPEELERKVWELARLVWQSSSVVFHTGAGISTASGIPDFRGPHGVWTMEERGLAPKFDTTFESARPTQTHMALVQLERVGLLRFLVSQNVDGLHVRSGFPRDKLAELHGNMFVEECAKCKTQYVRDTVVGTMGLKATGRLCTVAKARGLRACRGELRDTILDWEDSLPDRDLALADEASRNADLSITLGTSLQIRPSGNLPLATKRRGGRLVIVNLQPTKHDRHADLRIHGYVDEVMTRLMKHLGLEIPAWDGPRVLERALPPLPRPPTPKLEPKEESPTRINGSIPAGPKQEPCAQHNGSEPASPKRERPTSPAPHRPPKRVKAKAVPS

In the case of `NC(=O)C1CCCc2c1[nH]c1ccc(Cl)cc21` (racemic) [EX-527, reference compound], the pIC50 at Sirtuin 6 (h) [1] and on Sirtuin 6 (h) [2] was 3.26 throughout.
As to `CCCCCCCCCCCCCCCc1cccc(O)c1C(=O)O` [Anacardic Acid, reference compound], the pIC50 at GCN5L2(h) [3] and at GCN5L2(h) [4] was 5.33 in each case.
With `O=C(O)c1ccnc(C(=O)O)c1` [2,4 PDCA, reference compound], the negative logarithm of the IC50 (pIC50) – broadly, the IC50 on a negative log10 scale, so that one unit is a factor of ten – was 6.85 on JMJD2B (h) [5]; 6.21 at FBXL10 (h) [6]; 6.74 at JARID1A (h) [7]; 7.02 at JMJD2B (h) [8] (read-out: IC50); 6.85 at JMJD2B (h) [8] (read-out: Reference IC50); 6.21 at FBXL10 (h) [9]. The figures for the pIC50 at JARID1A (h) [10] (read-out: IC50) and on JARID1A (h) [10] (read-out: Reference IC50) were 7.00 and 6.74, respectively.
Take `O=C1c2ccccc2C(=O)c2c(NCCc3ccc(O)cc3)ccc(NCCc3ccc(O)cc3)c21` [JFD00244, reference compound]: the pIC50 on Sirtuin 7 (h) [11] and on Sirtuin 7 (h) [12] was 2.89 in each case.
Consider `Cc1sc2c(c1C)C(c1ccc(Cl)cc1)=N[C@@H](CC(=O)OC(C)(C)C)c1nnc(C)n1-2` [JQ-1, reference compound], for which the pIC50 is 4.92 at PCAF (h) bromodomain [13]; 4.86 on ASH1L (h) bromodomain [14] (Table 4, read-out: Reference IC50); 5.06 on ASH1L (h) bromodomain [14] (Table 9, inhibition/concentration-response curve, read-out: IC50); 4.15 at ATAD2A (h) bromodomain [15]; 4.35 in experiment [16]; 4.86 at ASH1L (h) bromodomain [17]. Further, the values for the pIC50 (in [18]; on PCAF (h) bromodomain [19]; on ATAD2A (h) bromodomain [20]) were 4.35, 4.92 and 4.15, respectively.
